{"source": "paper PMC5103216", "about": "“Novel Agonist Bioisosteres and Common Structure-Activity Relationships for The Orphan G Protein-Coupled Receptor GPR139” (Scientific Reports, 2016)", "target": "T1, GPR139 (Homo sapiens, UniProt Q6DWJ6)", "T1 sequence (Q6DWJ6 1-353)": "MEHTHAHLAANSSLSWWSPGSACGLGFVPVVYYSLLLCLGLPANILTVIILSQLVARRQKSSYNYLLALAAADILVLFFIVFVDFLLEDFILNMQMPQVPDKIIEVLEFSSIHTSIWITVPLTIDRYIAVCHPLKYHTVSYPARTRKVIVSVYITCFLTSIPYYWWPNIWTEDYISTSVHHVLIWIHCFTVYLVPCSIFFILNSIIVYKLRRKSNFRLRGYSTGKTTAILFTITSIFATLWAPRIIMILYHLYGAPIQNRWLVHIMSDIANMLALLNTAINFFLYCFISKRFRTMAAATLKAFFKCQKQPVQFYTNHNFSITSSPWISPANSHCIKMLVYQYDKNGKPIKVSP", "test": "Fluo-4 Ca2+-assay in CHO-k1 cells stably expressing GPR139 (CHO-GPR139)", "type": "cell-based", "conditions": "for EC50: CHO-GPR139, mean of at least three experiments; for Emax: CHO-K1, relative to 1a", "experimental": "Compound 1a[11] was kindly provided by H. Lundbeck A/S, Denmark. Compound 7c (Enamine no: Z31449867) was tested as a racemate, as the (S)-form described by Janssen et al. was not commercially available. All compounds were dissolved to 20 mM in DMSO (Sigma, D2650) and subsequently diluted in a HEPES buffer (HBSS (Invitrogen, 14025) supplemented with 20 mM HEPES + 1 mM MgCl2 + 1 mM CaCl2, pH = 7.4) to a final concentration 0.5% DMSO in the assay. The DMSO level was kept constant for all concentrations of all compounds. DMSO was confirmed not to have any activity by itself at this concentration. L-Tryptophan (T0254) and L-Phenylalanine (P2126) were obtained from Sigma-Aldrich and dissolved directly in buffer.\nAll compounds were tested on a CHO-k1 cell line stably expressing GPR139 (CHO-GPR139) kindly provided by H. Lundbeck A/S, Denmark, and also on a CHO-k1 cell line stably expressing the M1 receptor (CHO-M1) (The Missouri S&T cDNA Resource Center, #CEM100TN00) to check for specificity. The CHO-GPR139 was grown in Dulbecco’s modified eagle medium (DMEM) F12-Kaighn’s (Gibco, 21127) supplemented with 10% dialysed fetal bovine serum (Gibco, 26400, United States origin), 1% GlutaMAX^TM-I (100X) (Gibco, 35050), and 100 units/mL penicillin and 100 μg/mL streptomycin (Gibco, 15140) and 1.0 mg/mL geneticin (Invitrogen, 1181103). CHO-M1 was grown in Ham’s F12 (Gibco, 21765) supplemented with 10% fetal bovine serum (Gibco, 10270, South America origin) +100 units/mL penicillin and 100 μg/mL streptomycin (Invitrogen, 15140–122) and 0,25 mg/mL geneticin (Life Technologies, 11811–031). Compound 1a and carbamoylcholine chloride (Sigma-Aldrich, C4382) were used as positive controls in the two cell lines, respectively.\n30.000 cells/well were plated in black 96-well plates with flat clear bottoms (Corning, Falcon, 353219) and incubated overnight. The Fluo-4 dye loading solution (Invitrogen, F36206) was prepared according to the manufacturer’s instructions by dissolving it in HEPES buffer supplemented with 2.5 mM probenecid. 50 μL dye loading solution was added to each well. Cells were incubated with the Fluo-4 dye for 60 min at 37 °C, then washed with 100 μL HEPES buffer. 100 μL HEPES buffer supplemented with 2.5 mM probenecid was then added to each well and incubated in 10 minutes at 37 °C before measurement. 33 μL of the test compounds (4x concentrated) were added automatically after baseline measurements. Intracellular calcium change was recorded on a NOVOstar instrument (BMG Labtech) at 37 °C with an excitation filter of 485 nm and an emission filters 520 nm. Data originate from three independent experiments in triplicates."}
{"smiles": "COc1cc(OC)cc(C(=O)NNC(=O)C2CCCc3ccccc32)c1", "note": "(stereo not drawn) [DL24]", "values": [{"measurement": "EC50", "result": 431, "unit": "nM"}, {"measurement": "Emax", "result": 109, "unit": "%"}]}
{"smiles": "CCn1c(C)nc2cc(C(=O)NNC(=O)Cc3cccc4ccccc34)ccc21", "note": "[DL43]", "values": [{"measurement": "fold lower potency than 1a", "result": "~ 10 fold"}, {"measurement": "EC50", "result": 364, "unit": "nM"}, {"measurement": "Emax", "result": 97, "unit": "%"}]}
{"smiles": "O=C(NCC(=O)N1CCCC1c1ccccc1)c1ccc2c(c1)OCO2", "note": "(stereo not drawn) [DL132]", "values": [{"measurement": "EC50", "result": 505, "unit": "nM"}, {"measurement": "Emax", "result": 94, "unit": "%"}]}
{"smiles": "O=C(CN1CCCc2ccccc21)NNC(=O)c1ccc2c(c1)OCO2", "note": "[DL22]", "values": [{"measurement": "EC50", "result": 442, "unit": "nM"}, {"measurement": "Emax", "result": 105, "unit": "%"}]}
{"smiles": "O=C(Cc1cccc2ccccc12)NNC(=O)c1ccc2c(c1)OCO2", "note": "[DL126]", "values": [{"measurement": "fold lower potency than 1a", "result": "~ 10 fold"}, {"measurement": "EC50", "result": 411, "unit": "nM"}, {"measurement": "Emax", "result": 91, "unit": "%"}]}
{"smiles": "O=C(CNC(=O)c1ccc2c(c1)OCO2)NC1CCSc2ccc(F)cc21", "note": "(stereo not drawn) [DL130]", "values": [{"measurement": "EC50", "result": 888, "unit": "nM"}, {"measurement": "Emax", "result": 89, "unit": "%"}]}
